Patent US11053204B2, “Pyrimidinyloxy benzene derivatives as herbicides” (FMC Corporation, priority 2015, dated 2021)

Legend:
Assay type in all cases: in vivo
[1] = system: galium (catchweed bedstraw, Galium aparine); assay: Test C preemergence, plant response rating
[2] = system: surinam grass (Brachiaria decumbens); assay: Test C preemergence, plant response rating
[3] = system: foxtail, giant (giant foxtail, Setaria faberii); assay: Test C postemergence, plant response rating; settings: for Plant response rating, Foxtail, Giant: scale 0 to 100; for Foxtail, Giant plant response rating: scale 0 to 100 (0 no effect, 100 complete control)
Method in brief: (§1)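 Pre-emergence: seeds sown in loam soil–sand blend or silt loam and sprayed with test chemicals in a non-phytotoxic solvent mixture with surfactant. Post-emergence: plants 2 to 18 cm (1- to 4-leaf stage) in peat-based potting medium, same formulation. Greenhouse 13 to 15 d; visual rating 0 (no effect) to 100 (complete control) versus controls.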

[4] = system: crabgrass, large (large crabgrass, Digitaria sanguinalis); assay: Test C postemergence, plant response rating; settings: for Plant response rating, Crabgrass, Large: scale 0 to 100; for Crabgrass, Large plant response rating: scale 0 to 100 (0 no effect, 100 complete control)
Method in brief: as §1

[5] = system: blackgrass (Alopecurus myosuroides); assay: Test C postemergence, plant response rating; settings: for Plant response rating, Blackgrass: scale 0 to 100; for Blackgrass plant response rating: scale 0 to 100 (0 no effect, 100 complete control)
Method in brief: as §1

[6] = system: waterhemp (common waterhemp, Amaranthus rudis); assay: Test C postemergence, plant response rating; settings: for Plant response rating, Waterhemp: scale 0 to 100; for Waterhemp plant response rating: scale 0 to 100 (0 no effect, 100 complete control)
Method in brief: as §1

[7] = system: velvetleaf (Abutilon theophrasti); assay: Test C postemergence, plant response rating; settings: for Plant response rating, Velvetleaf: scale 0 to 100; for Velvetleaf plant response rating: scale 0 to 100 (0 no effect, 100 complete control)
Method in brief: as §1

[8] = system: lambsquarters (Chenopodium album); assay: Test C postemergence, plant response rating; settings: for Plant response rating, Lambsquarters: scale 0 to 100; for Lambsquarters plant response rating: scale 0 to 100 (0 no effect, 100 complete control)
Method in brief: as §1

[9] = system: wheat (winter wheat, Triticum aestivum); assay: Test C postemergence, plant response rating; settings: for Plant response rating, Wheat: scale 0 to 100; for Wheat plant response rating: scale 0 to 100 (0 no effect, 100 complete control)
Method in brief: as §1

[10] = system: oat, wild (wild oat Avena fatua); assay: Test C postemergence, plant response rating; settings: for Plant response rating, Oat, Wild: scale 0 to 100; for Oat, Wild plant response rating: scale 0 to 100 (0 no effect, 100 complete control)
Method in brief: as §1

[11] = system: nutsedge, yellow (yellow nutsedge, Cyperus esculentus); assay: Test C postemergence, plant response rating; settings: for Plant response rating, Nutsedge, Yellow: scale 0 to 100; for Nutsedge, Yellow plant response rating: scale 0 to 100 (0 no effect, 100 complete control)
Method in brief: as §1

[12] = system: ragweed (common ragweed, Ambrosia elatior); assay: Test C postemergence, plant response rating; settings: for Plant response rating, Ragweed: scale 0 to 100; for Ragweed plant response rating: scale 0 to 100 (0 no effect, 100 complete control)
Method in brief: as §1

[13] = system: oilseed rape (Brassica napus); assay: Test C postemergence, plant response rating; settings: for Plant response rating, Oilseed Rape: scale 0 to 100; for Oilseed Rape plant response rating: scale 0 to 100 (0 no effect, 100 complete control)
Method in brief: as §1

[14] = system: galium (catchweed bedstraw, Galium aparine); assay: Test C postemergence, plant response rating; settings: for Plant response rating, Galium: scale 0 to 100; for Galium plant response rating: scale 0 to 100 (0 no effect, 100 complete control)
Method in brief: as §1

[15] = system: ryegrass, Italian (Italian ryegrass, Lolium multiflorum); assay: Test C postemergence, plant response rating; settings: for Plant response rating, Ryegrass, Italian: scale 0 to 100; for Ryegrass, Italian plant response rating: scale 0 to 100 (0 no effect, 100 complete control)
Method in brief: as §1

soybean (Glycine max) = assay: Test C postemergence, plant response rating; settings: for Plant response rating, Soybean: scale 0 to 100; for Soybean plant response rating: scale 0 to 100 (0 no effect, 100 complete control)
Method in brief: as §1

corn (Zea mays) = assay: Test C postemergence, plant response rating; settings: for Plant response rating, Corn: scale 0 to 100; for Corn plant response rating: scale 0 to 100 (0 no effect, 100 complete control)
Method in brief: as §1

kochia (Kochia scoparia) = assay: Test C preemergence, plant response rating
[16] = system: oat, wild (wild oat Avena fatua); assay: Test C preemergence, plant response rating

For `CCCC(=O)c1c(Br)cccc1Oc1ncc(Cl)cn1` [Compound 75], the “Plant response rating, Galium” value ([1]; 16 g ai/ha, scale 0 to 100) was 0, the “Plant response rating, Galium” value ([1]; 31 g ai/ha, scale 0 to 100) was 0 and the “Plant response rating, Galium” value ([1]; 62 g ai/ha, scale of 0 to 100) was 5. For the same molecule, the “Plant response rating, Galium” value ([1]; 125 g ai/ha, scale of 0 to 100) was 0, the “Plant response rating, Surinam Grass” value ([2]; 16 g ai/ha, scale 0 to 100) was 0 and the “Plant response rating, Surinam Grass” value ([2]; 31 g ai/ha, scale 0 to 100) was 30. For the same molecule, the “Plant response rating, Surinam Grass” value ([2]; 62 g ai/ha, scale 0 to 100) was 35, the “Plant response rating, Surinam Grass” value ([2]; 125 g ai/ha, scale of 0 to 100) was 80 and the “Plant response rating, Foxtail, Giant” value ([3]; 16 g ai/ha) was 10. For the same molecule, the “Plant response rating, Foxtail, Giant” value ([3]; 31 g ai/ha) was 10, the “Foxtail, Giant plant response rating” value ([3]; 62 g ai/ha) was 10 and the “Foxtail, Giant plant response rating” value ([3]; 125 g ai/ha) was 25. For the same molecule, the “Plant response rating, Crabgrass, Large” value ([4]; 16 g ai/ha) was 10, the “Plant response rating, Crabgrass, Large” value ([4]; 31 g ai/ha) was 10 and the “Crabgrass, Large plant response rating” value ([4]; 62 g ai/ha) was 15. The “Crabgrass, Large plant response rating” value ([4]; 125 g ai/ha) was 25, the “Plant response rating, Blackgrass” value ([5]; 16 g ai/ha) was 0 and the “Plant response rating, Blackgrass” value ([5]; 31 g ai/ha) was 5. For the same molecule, the “Blackgrass plant response rating” value ([5]; 62 g ai/ha) was 10, the “Blackgrass plant response rating” value ([5]; 125 g ai/ha) was 30 and the “Plant response rating, Waterhemp” value ([6]; 16 g ai/ha) was 85. The “Plant response rating, Waterhemp” value ([6]; 31 g ai/ha) was 90, the “Waterhemp plant response rating” value ([6]; 62 g ai/ha) was 90 and the “Waterhemp plant response rating” value ([6]; 125 g ai/ha) was 95. The “Plant response rating, Velvetleaf” value ([7]; 16 g ai/ha) was 30, the “Plant response rating, Velvetleaf” value ([7]; 31 g ai/ha) was 35 and the “Velvetleaf plant response rating” value ([7]; 62 g ai/ha) was 70. For the same molecule, the “Velvetleaf plant response rating” value ([7]; 125 g ai/ha) was 75, the “Plant response rating, Lambsquarters” value ([8]; 16 g ai/ha) was 50 and the “Plant response rating, Lambsquarters” value ([8]; 31 g ai/ha) was 55. The “Lambsquarters plant response rating” value ([8]; 62 g ai/ha) was 70, the “Lambsquarters plant response rating” value ([8]; 125 g ai/ha) was 90 and the “Plant response rating, Wheat” value ([9]; 16 g ai/ha) was 0. For the same molecule, the “Plant response rating, Wheat” value ([9]; 31 g ai/ha) was 5, the “Wheat plant response rating” value ([9]; 62 g ai/ha) was 0 and the “Wheat plant response rating” value ([9]; 125 g ai/ha) was 10. The “Plant response rating, Oat, Wild” value ([10]; 16 g ai/ha) was 5, the “Plant response rating, Oat, Wild” value ([10]; 31 g ai/ha) was 35 and the “Oat, Wild plant response rating” value ([10]; 62 g ai/ha) was 40. The “Oat, Wild plant response rating” value ([10]; 125 g ai/ha) was 35, the “Plant response rating, Nutsedge, Yellow” value ([11]; 16 g ai/ha) was 0 and the “Plant response rating, Nutsedge, Yellow” value ([11]; 31 g ai/ha) was 0. For the same molecule, the “Nutsedge, Yellow plant response rating” value ([11]; 62 g ai/ha) was 0, the “Nutsedge, Yellow plant response rating” value ([11]; 125 g ai/ha) was 5 and the “Plant response rating, Ragweed” value ([12]; 16 g ai/ha) was 5. For the same molecule, the “Plant response rating, Ragweed” value ([12]; 31 g ai/ha) was 10, the “Ragweed plant response rating” value ([12]; 62 g ai/ha) was 50 and the “Ragweed plant response rating” value ([12]; 125 g ai/ha) was 60. The “Plant response rating, Oilseed Rape” value ([13]; 16 g ai/ha) was 60, the “Plant response rating, Oilseed Rape” value ([13]; 31 g ai/ha) was 80 and the “Oilseed Rape plant response rating” value ([13]; 62 g ai/ha) was 80. The “Oilseed Rape plant response rating” value ([13]; 125 g ai/ha) was 95, the “Plant response rating, Galium” value ([14]; 16 g ai/ha) was 40 and the “Plant response rating, Galium” value ([14]; 31 g ai/ha) was 70. The “Galium plant response rating” value ([14]; 62 g ai/ha) was 70, the “Galium plant response rating” value ([14]; 125 g ai/ha) was 80 and the “Plant response rating, Ryegrass, Italian” value ([15]; 16 g ai/ha) was 0. The “Plant response rating, Ryegrass, Italian” value ([15]; 31 g ai/ha) was 10, the “Ryegrass, Italian plant response rating” value ([15]; 62 g ai/ha) was 10 and the “Ryegrass, Italian plant response rating” value ([15]; 125 g ai/ha) was 5. The “Plant response rating, Soybean” value (soybean (Glycine max); 16 g ai/ha) was 50, the “Plant response rating, Soybean” value (soybean (Glycine max); 31 g ai/ha) was 65 and the “Soybean plant response rating” value (soybean (Glycine max); 62 g ai/ha) was 85. For the same molecule, the “Soybean plant response rating” value (soybean (Glycine max); 125 g ai/ha) was 85, the “Plant response rating, Corn” value (corn (Zea mays); 16 g ai/ha) was 10 and the “Plant response rating, Corn” value (corn (Zea mays); 31 g ai/ha) was 15. The “Corn plant response rating” value (corn (Zea mays); 62 g ai/ha) was 15, the “Corn plant response rating” value (corn (Zea mays); 125 g ai/ha) was 20 and the “Plant response rating, Kochia” value (kochia (Kochia scoparia); 16 g ai/ha, scale 0 to 100) was 0. The “Plant response rating, Kochia” value (kochia (Kochia scoparia); 31 g ai/ha, scale 0 to 100) was 50, the “Plant response rating, Kochia” value (kochia (Kochia scoparia); 62 g ai/ha, scale 0 to 100) was 90 and the “Plant response rating, Kochia” value (kochia (Kochia scoparia); 125 g ai/ha, scale of 0 to 100) was 100. For the same molecule, the “Plant response rating, Oat, Wild” value ([16]; 16 g ai/ha, scale 0 to 100) was 0, the “Plant response rating, Oat, Wild” value ([16]; 31 g ai/ha, scale 0 to 100) was 0 and the “Plant response rating, Oat, Wild” value ([16]; 62 g ai/ha, scale 0 to 100) was 0. The “Plant response rating, Oat, Wild” value ([16]; 125 g ai/ha, scale of 0 to 100) was 5.
